Where a name gives a salt, the structure may show the parent alone. Read-outs that look alike come from different tables or passages of the source.
Tested on: murine neural precursor cells (neurosphere cultures)
Experiment: HTS of LOPAC library against secondary neurosphere cultures, MTT proliferation assay at 3 μM, day 7 (z score, P value)
Assay type: cell-based, mouse
[1] = LOPAC library screen, 3 μM, MTT, secondary neurosphere cultures, day 7
[2] = LOPAC primary screen, neurosphere MTT proliferation, 3 μM, day 7
[3] = LOPAC library screen at 3 μM, secondary neurosphere cultures, MTT
[4] = yes = significantly inhibited neurosphere proliferation (P<0.01) in the primary screen
[5] = LOPAC library screen, 3 μM, MTT, neurosphere cultures
[6] = yes/no: significantly inhibited neurosphere proliferation (P<0.01) in the primary screen
[7] = yes/no: significantly inhibited neurosphere proliferation in primary screen

In the case of `Cc1ncc(CNC(=O)N(CCCl)N=O)c(N)n1` [Nimustine hydrochloride], the “Z Score” value is reported as −0.6524.
In the case of `CNCCC(Oc1ccccc1OC)c1ccccc1` (stereo not shown) [Nisoxetine hydrochloride], the “Z Score” value is reported as 0.8336 and the Z score is reported as 0.834.
In the case of `CCOC(=O)C1=C(C)NC(C)=C(C(=O)OC)C1c1cccc([N+](=O)[O-])c1` (stereo not shown) [Nitrendipine], the “Z Score” value [1] is reported as −1.61 and the Z score [2] is reported as −1.610.
In the case of `COC(=O)Nc1nc2ccc(C(=O)c3cccs3)cc2[nH]1` [Nocodazole], the “Z Score” value [3] is reported as −0.1891, the Z score [2] is reported as −0.189 and the Activity [4] is reported as “no”.
`CN1Cc2c(N)cccc2C(c2ccccc2)C1` (stereo not shown) [Nomifensine maleate] was tested, and the “Z Score” value [5] was 0.6693, the Z score [2] was 0.669 and the Activity [4] was “no”.
With `O=C1OC(=O)[C@H]2[C@@H]1[C@@H]1CC[C@H]2O1` [Norcantharidin] the “Z Score” value was −1.251, the Z score [2] was −1.251 and the Activity [4] was “no”.
`CNCCC=C1c2ccccc2CCc2ccccc21` [Nortriptyline hydrochloride] was tested, and the “Z Score” value [3] was −1.095, the Z score [2] was −1.095 and the Activity [4] was “no”.
For `COc1ccc2c(c1OC)C(=O)O[C@@H]2[C@H]1c2c(cc3c(c2OC)OCO3)CCN1C.Cl` [Noscapine hydrchloride], the “Z Score” value [1] was −2.455, the Z score [2] was −2.455 and the Activity [6] was “yes”.
With `CC(CCc1ccccc1)NC(C)C(O)c1ccc(O)cc1` (stereo not shown) [Nylidrin hydrochloride] the “Z Score” value [1] was −1.375, the Z score [2] was −1.375 and the Activity [4] was “no”.
`CN(C)C(=N)NCCC[C@H](N)C(=O)O.Cl` [N′,N′-Dimethylarginine hydrochloride] was tested, and the Z score (LOPAC screen, neurosphere MTT proliferation, 3 μM, day 7) was −1.373 and the Activity (yes/no: significantly inhibited neurosphere proliferation (P<0.01) in primary screen) was “no”.
For `Nc1nc(OCc2ccccc2)c2nc[nH]c2n1` [O6-benzylguanine], the “Z Score” value [3] was −1.177, the Z score (primary LOPAC screen, 3 μM, MTT, neurosphere proliferation) was −1.177 and the Activity (yes/no: significantly inhibited neurosphere proliferation in the primary screen) was “no”.
`COc1ccc2[nH]cc(CCN)c2c1.Cl` [O-Methylserotonin hydrochloride] was tested, and the “Z Score” value was −0.172, the Z score [2] was −0.172 and the Activity [4] was “no”.
In the case of `N[C@@H](COP(=O)(O)O)C(=O)O` [O-Phospho-L-serine], the “Z Score” value [5] is reported as 0.5472, the Z score [2] is reported as 0.547 and the Activity [7] is reported as “no”.
In the case of `O=c1onc2cnc3ccccc3n12` [ODQ], the “Z Score” value is reported as −0.5922, the Z score [2] is reported as −0.592 and the Activity [7] is reported as “no”.
`C[C@@H]1O[C@H](C[N+](C)(C)C)CS1.[I-]` [OXA-22 iodide] was tested, and the Activity was “no”, the “Z Score” value was −1.666 and the Z score was −1.666.
In the case of `CC1COc2c(N3CCN(C)CC3)c(F)cc3c(=O)c(C(=O)O)cn1c23` (stereo not shown) [Ofloxacin], the “Z Score” value [3] is reported as −0.4889 and the Z score [2] is reported as −0.489.
For `CCCCCCCC/C=C\CCCCCCCC(=O)O` [Oleic Acid], the “Z Score” value [3] was −0.3449.
`CCCCCCCC/C=C\CCCCCCCC(=O)O` [Oleic acid] was tested, and the Z score [2] was −0.345 and the Activity [6] was “no”.
In the case of `CC[C@@H]1/C=C/C=C/C[C@H](C)[C@H](O)[C@](C)(O)C(=O)[C@H](C)[C@@H](O)[C@H](C)C(=O)[C@H](C)[C@@H](O)[C@H](C)/C=C/C(=O)O[C@H]2[C@@H](C)[C@@H](CC1)O[C@@]1(CC[C@@H](C)[C@@H](C[C@H](C)O)O1)[C@@H]2C` [Oligomycin A], the “Z Score” value [1] is reported as −9.731, the Z score [2] is reported as −9.731 and the Activity [4] is reported as “yes”.
With `Cn1cnc2c(NCc3ccccc3)nc(NCCO)nc21` [Olomoucine] the “Z Score” value (168 h, 3 µM) was 1.553 and the Z score (168 h, 3 µM) was 1.553.
With `Cc1ccccc1C(OCCN(C)C)c1ccccc1` (stereo not shown) [Orphenadrine hydrochloride] the “Z Score” value [5] was 0.4548 and the Z score [2] was 0.455.
`C[C@@H]1O[C@@H](O[C@H]2C[C@@H](O)[C@]3(CO)[C@H]4[C@H](O)C[C@]5(C)[C@@H](C6=CC(=O)OC6)CC[C@]5(O)[C@@H]4CC[C@]3(O)C2)[C@H](O)[C@H](O)[C@H]1O` [Ouabain] was tested, and the “Z Score” value [1] was −1.568, the Z score [2] was −1.568 and the Activity [7] was “no”.
`O=C(O)CCc1nc(-c2ccccc2)c(-c2ccccc2)o1` [Oxaprozin] was tested, and the “Z Score” value [5] was 0.06616, the Z score [2] was 0.066 and the Activity [7] was “no”.
